Patent US5958947A, “DNA-affinic hypoxia selective cytotoxins” (priority 1996, dated 1999)
Several values for one entry are separate records, joined by “and”; a condition that tells them apart may be missing. Equal values may be shown once. Read-outs that look alike come from different tables or passages of the source.

Experiments:
calf thymus Topo I = target: T1, calf thymus Topo I (Bos taurus, UniProt F1MN93); experiment: Topoisomerase I interaction (relaxation of supercoiled DNA); assay type: biochemical
T1 construct: purchased TopoGEN, Inc., Columbus, Ohio; host or cells: calf thymus
T1 sequence (F1MN93 1-767): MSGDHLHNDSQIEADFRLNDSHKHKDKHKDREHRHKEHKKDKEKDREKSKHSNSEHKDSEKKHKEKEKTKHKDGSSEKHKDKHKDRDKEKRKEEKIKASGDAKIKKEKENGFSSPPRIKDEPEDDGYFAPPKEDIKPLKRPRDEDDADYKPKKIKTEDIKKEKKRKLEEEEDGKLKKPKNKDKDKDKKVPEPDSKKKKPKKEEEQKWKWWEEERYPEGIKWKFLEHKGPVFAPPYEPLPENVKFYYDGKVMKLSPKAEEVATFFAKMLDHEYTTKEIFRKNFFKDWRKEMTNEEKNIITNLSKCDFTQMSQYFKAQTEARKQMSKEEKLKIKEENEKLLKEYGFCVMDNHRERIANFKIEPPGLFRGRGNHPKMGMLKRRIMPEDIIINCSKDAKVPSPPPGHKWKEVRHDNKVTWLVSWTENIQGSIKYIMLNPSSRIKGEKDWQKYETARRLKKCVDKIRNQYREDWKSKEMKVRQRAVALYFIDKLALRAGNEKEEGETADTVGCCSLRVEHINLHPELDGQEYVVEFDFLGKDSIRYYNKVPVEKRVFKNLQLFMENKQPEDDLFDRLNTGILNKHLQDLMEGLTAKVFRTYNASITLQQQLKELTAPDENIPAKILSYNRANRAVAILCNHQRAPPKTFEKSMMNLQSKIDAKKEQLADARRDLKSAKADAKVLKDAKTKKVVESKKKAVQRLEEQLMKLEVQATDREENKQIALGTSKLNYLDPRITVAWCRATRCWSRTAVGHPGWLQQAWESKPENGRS
Method: In particular, a Topo I drug screening kit (TopoGEN, Inc., Columbus, Ohio) was used to assay the topoisomerase I THNLA-1 interaction. […] Camptothecin is a Topoisomerase I poison used as an anticancer drug. Camptothecin stabilizes the Topo I-DNA cleavable complex, and therefore prevents the resealing of DNA by Topo-I.
Individual reaction mixtures were heated for 30 minutes at 37° C. on a heating block, and then 2 μl of 10% SDS - proteinase K solution was added to each reaction mixture. The resulting reaction mixtures then were heated for an additional 30 minutes at 37° C. The reaction mixtures in a loading buffer were extracted with CHCl3 prior to submarine electrophoresis on a 1% agarose gel. The DNA bands were observed visually by staining with ethidium bromide (0.5 μg/ml).

V79 cells [1] = experiment: Isoeffective to the oxygen dose (IsD); assay type: cell-based, Chinese hamster; conditions: Cricetulus griseus, V79, 1 h, 7.5 Gy, 1 hour at 37° C.; read-out: Isoeffective to the oxygen dose at 7.5 Gy: IsD(7.5)
Description: The survival fraction under hypoxic conditions (plotted versus compound concentration) meets the aerobic survival fraction (radiation toxicity) at the IsD. The IsD value is a useful indicator of the overall potency of a compound as a sensitizer and cytotoxin of hypoxic cells. IsD is especially useful when comparing different compounds for hypoxic cytotoxicity and radiosensitizing efficacy.
FIGS. 5 and 6 illustrate the IsD at 7.5 Gy (FIG. 5A) and 20 Gy (FIG. 5B). FIGS. 5A and 6A include a comparison to the prior art NLA-1 compound. V79 cells were irradiated at 7.5 Gy or 20 Gy after a 1 hour exposure under hypoxia (symbols) or air (straight line), at various drug concentrations. No toxicity or radiosensitization for any tested compound was observed under aerobic conditions over the tested concentration ranges. IsD values were calculated from the intersections of the survival fractions of the hypoxic curves with the survival fraction in air. All data points in FIGS. 5 and 6 represent the mean of two replicate experiments.

V79 cells [2] = experiment: Drug uptake in the presence of ammonium chloride; assay type: cell-based, Chinese hamster; conditions: aerobic V79 cells, 60 μM input, 50 mM NH4Cl (stated for THNLA-1)
Method: Uptake measurements in the presence of the lysosomotropic agent ammonium chloride (NH4 Cl) also were performed in a manner as previously described.
Concentrations were determined by UV spectrophotometry at 330 nm. The plotted points represent the mean of two experiments.

[3] = tested on: V79 Chinese hamster lung cells; experiment: Radiosensitization of V79 cells; assay type: cell-based; conditions: for EC (SER 1.6): Cricetulus griseus
Method: (§1) Samples of V79 Chinese hamster lung cells used in the following experiments were prepared as follows. V79 cells, exponentially growing as monolayer cultures in RPMI 1640 medium (Mediatech) supplemented with 10% fetal calf serum, were trypsinized, centrifuged for 5 min, harvested, then suspended in 25 ml Erlenmeyer flasks fitted with rubber caps at 5×10^5 cells/ml (5 ml). Individual flasks either were shaken (100 rpm) at 37° C. under aerobic conditions or made hypoxic by gassing with a 95% N2 (nitrogen)/5% CO2 (carbon dioxide) humidified gas mixture for 1 hour.
Radiosensitization studies were performed on V79 cells in a manner similar to the acute toxicity experiments, except that the survival fraction was determined after a predetermined radiation dose. […] One Gy is equal to 100 rads, wherein one rad is the quantity of ionizing radiation that results in the absorption of 100 ergs of energy per gram of irradiated material. Hypoxia was maintained throughout irradiation. […] Sensitization enhancement ratios (SER) were determined at a 10% survival level. […] The plotted points in FIGS. 3 and 4 represent the mean of 2 or 3 replicate experiments.

solid tumors = conditions: cited from earlier work
[4] = Partition coefficient in octanol/water; assay type: physicochemical
Method: The partition coefficient of the hypoxia selective cytotoxins of the present invention were determined by the method of T. Fujita et al., J. Am. Chem. Soc., 86, 5175-5180 (1964), incorporated herein by reference.

[5] = tested on: V79 Chinese hamster lung cells; experiment: Acute aerobic and hypoxic cytotoxicity (colony formation); assay type: cell-based
Method: as §1
(§2) To determine the fraction of surviving cells, samples were removed, diluted and plated to provide 2×10^2 to 2×10^4 cells/well on 60 mm Linbro multi-well plates (Flow Laboratories, McLean, Virginia). The plates were incubated at 37° C. for 6 days, stained with crystal violet and examined for colony formation. Colonies of 50 cells or greater were counted. Each plotted point in FIGS. 1 and 2 represent the mean of three or four replicate experiments.

[6] = as above; assay type: cell-based, Chinese hamster; conditions: chinese hamster, aerobic v79 cells, V79 cells, aerobic, 1 hour, 37° C.; 50% inhibition of clonogenicity
Method: as §1, §2

With `Cl.O=[N+]([O-])c1nccn1CCCNc1c2ccccc2nc2ccccc12` [NLA-1, 9-[3-(2-nitro-1-imidazolyl)propylamino]acridine hydrochloride, reference compound] the “Topo I-dependent single-stranded DNA cleavage” value (calf thymus Topo I) was “observed”, the IC50 (calf thymus Topo I; Topo I inhibition (50%)-dose, Topo I-induced relaxation of supercoiled DNA) was ~12 µM and 12 µM and the EC (isoeffective to oxygen at 7.5 Gy) (V79 cells [1]) was about 11 µM. For the same compound, the “factor of decrease of Ci in the presence of NH4Cl” value (V79 cells [2]) was “about 3”, the EC (SER 1.6) ([3]; 1 h, concentration yielding an SER of 1.6, hypoxic V79 cells, read-out: Hypoxic radiosensitizing potency: C1.6) was 8 µM and the EC (SER 1.6) ([3]; hypoxic radiosensitization, V79 cells (tables), read-out: Intracellular concentration at C1.6: C1.6i) was 885 µM. For the same compound, the EC (SER 1.6) ([3]; hypoxic radiosensitization, V79 cells, read-out: Intracellular concentration for an SER of 1.6: C1.6i) was 885 µM, the “radioprotection under aerobic conditions” value ([3]; aerobic) was “afforded radioprotection under aerobic conditions” and the “radiosensitization in vivo / in solid tumors (prior art)” value (solid tumors) was “failure of NLA-1 as radiosensitizer in solid tumors”. The “Partition coefficient in octanol/water: PCo/w” value [4] was 0.07, the logP ([4]; read-out: Partition coefficient in octanol/water: PCo/w (converted)) was -1.15 and the IC50 ([5]; Cricetulus griseus, V79, 1 h, V79 cells, hypoxia, 1 hour, 37° C., 50% inhibition of clonogenicity) was 15 µM. The “Hypoxic selectivity (differential aerobic/hypoxic toxicity): IC50/A,1h /IC50/H,1h” value ([5]; V79 cells, 1 hour, 37° C.) was 5.5, the “cytotoxicity / selectivity relative to THNLA-1 or NLA-1” value ([5]; from IC50/H, IC50/A and their ratio) was “about a two times more potent hypoxic cytotoxin” and the IC50 at 1 h [6] was 84 µM.
